From US8575188B2 (priority 2009, dated 2013)
Where two headings read alike, the source gives them in different places.

Tests used:
[1] = system: human prostate cancer cell line DU145; assay: Antiproliferation assay, 72 hrs under air, Alamar Blue; assay type: cell-based; settings: Homo sapiens, DU-145
[2] = system: human melanoma cell line MAMLE-3M; assay: as above; assay type: cell-based; settings: Homo sapiens
[3] = system: human melanoma cell line SKMEL-28; assay: as above; assay type: cell-based; settings: Homo sapiens, SK-MEL-28
[4] = system: human non small cell lung cancer cell line H460; assay: Antiproliferation (cytotoxicity) assay, 72 hrs under air, Alamar Blue; assay type: cell-based; settings: Homo sapiens, NCI-H460; H460, inhibition of proliferation, 72 hrs under air; read-out: IC50
[5] = system: IGROV1 human ovarian cancer cells; assay: Xenograft model of metastatic ovarian cancer (i.p.), survival; settings: IGROV1 i.p., median survival treated / vehicle times 100; PO, QD × 5/wk, 4 weeks, 40 mg/Kg
Experimental: One arm was dosed with only vehicle and the results used for the efficacy calculations. […] A xenograft model of metastatic ovarian cancer was set up by the intraperitoneal (i.p) injection of 3×10^6 IGROV1 human ovarian cancer cells in nude mice. Mice were evaluated twice a week for morbidity and mortality. Kaplan-Meier survival curves were plotted.

pcDNA = assay: Efflux pump drug resistance, antiproliferation assay, parent line; assay type: cell-based; settings: air
Experimental: (§1) The compounds were screened for cytotoxicity using human non small cell lung cancer cell line H460. […]
(§2) Cellular drug resistance was determined using the antiproliferation assay described above.

[6] = system: H69 small cell lung cancer line; assay: as above; assay type: cell-based; settings: air
Experimental: as §1, §2

[7] = system: DX5, which over expresses the MDR 1 efflux pump; assay: Efflux pump drug resistance, antiproliferation assay, MDR 1 over expressing line; assay type: cell-based; settings: air
Experimental: as §1, §2

[8] = system: human colon cancer cell line HT-29; assay: Antiproliferation assay, 72 hrs under air, Alamar Blue; assay type: cell-based; settings: Homo sapiens, HT-29, read-out: HT29 IC50
[9] = system: Messa ovarian carcinoma cell line; assay: Efflux pump drug resistance, antiproliferation assay, parent line; assay type: cell-based; settings: air
Experimental: […] Cells were treated with test compounds at various concentrations under air for 72 hrs, and then cell viability and proliferation were assessed by Alamar Blue staining.
as §2

[10] = system: bone marrow progenitor cells; assay: Bone marrow progenitor cell clonogenic assay (CFU-GM), mouse; settings: Mus musculus, CFU-GM, read-out: Mouse CFU-GM (IC50 nM) THLD
Experimental: (§3) A clonogenic assay was performed using bone marrow progenitor cells derived from the blood of mice and humans.

[11] = as above; settings: mouse
Experimental: as §3

[12] = system: bone marrow progenitor cells; assay: Bone marrow progenitor cell clonogenic assay (CFU-GM), human; settings: Homo sapiens, CFU-GM, read-out: Human CFU-GM (IC50 nM) THLD
Experimental: as §3

[13] = as above; settings: human
Experimental: as §3

human colon cancer HT-29 = assay: Xenograft model, subcutaneous, tumor growth inhibition and body weight loss; settings: for TGI (%): HT29, PO, QD × 5/wk; for Max. BWL (%): mouse, in vivo, po
Experimental: (§4) The first three models were produced by subcutaneous implantation of the appropriate number of cells into the flank of the animals. When tumor size was approximately 150 mm^3, animals were randomized into groups of 10 mice each for dosing. One arm was dosed with only vehicle and the results used for the efficacy calculations. […] TGI=(1−T/C) %. T/C ratio was calculated as T/C=(Tn−Ti)/(Cn−Ci), where Tn is tumor volume in treatment group on Day n, and Ti is the initial tumor volume in the treatment group. Cn is the tumor volume of the vehicle group on the last day of measurement. Ci is the initial tumor volume in the vehicle control group. Day n is the last measurement taken when all the animals in the vehicle group were not yet euthanized. Animals were euthanized when tumor volumes grew larger than 2000 mm^3.

[14] = system: human non small cell lung cancer H-460; assay: as above
Experimental: as §4

[15] = system: human prostate cancer PC-3; assay: as above
Experimental: as §4

[16] = system: human melanoma cell line A375; assay: Antiproliferation assay, 72 hrs under air, Alamar Blue; assay type: cell-based; settings: Homo sapiens, A-375
[17] = In vivo pharmacokinetics, oral gavage; settings: CD, mouse, in vivo, po; for AUC / Cmax: 50 mg/kg
Experimental: The data normalized to a 50 mg/kg dose are shown below (compounds were dosed at either 25 or 50 mg/kg).

[18] = system: human ovarian cancer cell line IGROV-1; assay: Antiproliferation assay, 72 hrs under air, Alamar Blue; assay type: cell-based; settings: Homo sapiens, IGROV-1
[19] = system: human melanoma cell line SKMEL2; assay: as above; assay type: cell-based; settings: Homo sapiens, SK-MEL-2, read-out: SKMEL-2 IC50
[20] = system: MRP1 over expressing H69AR line; assay: Efflux pump drug resistance, antiproliferation assay, MRP1 over expressing line; assay type: cell-based; settings: Homo sapiens, air
Experimental: as §1, §2

[21] = system: BCRP, which over expressed the breast cancer resistance protein; assay: Efflux pump drug resistance, antiproliferation assay, BCRP over expressing line
Experimental: as §1, §2

[22] = Brain penetration, AUC in brain versus AUC plasma; settings: mouse
Experimental: Certain compounds of the invention were assessed for brain penetration by comparing the AUC for plasma exposure versus the AUC in brain.

[23] = system: human prostate cancer cell line LNCap; assay: Antiproliferation assay, 72 hrs under air, Alamar Blue; assay type: cell-based; settings: Homo sapiens, LNCaP
Oral bioavailability = settings: rat, in vivo, Sprague-Dawley rats
Text: Rats are often a useful species for predicting oral bioavailablity in humans.

[24] = system: human prostate cancer cell line PC-3; assay: Antiproliferation assay, 72 hrs under air, Alamar Blue; assay type: cell-based; settings: Homo sapiens, read-out: PC3 IC50
H46O cells = assay: Selective hypoxic activation of 14-nitro prodrugs in cell culture; assay type: cell-based, human; settings: TH1431 at 1 micromolar, 24 hr
Experimental: H46O cells were grown to a confluent monolayer and then the 14-nitro TH1332 prodrug was added to the media at 5 micromolar concentration. Incubations were done for 24 hour either under air or nitrogen (hypoxia), media and cells were recovered, sonicated and soluble extracts were isolated by acetonitrile precipitation of proteins. The level of amino TH1338 active cytotoxin were quantitated by liquid chromotagraphy mass spectra analysis. The equivalent of 70 nanomolar TH1338 was produced under hypoxia with undetectable levels being produced under air (less than 5 nanomolar).
The analogous experiment was preformed using 1 micromolar concentration of the 14-nitro derivative TH1431. After 24 hr, 180 nanomolar of the 14 amino TH1499 was produced under nitrogen with undetectable levels produced under air (less than 5 nanomolar).

[25] = system: mouse melanoma cell line B-16-F10; assay: Antiproliferation assay, 72 hrs under air, Alamar Blue; assay type: cell-based; settings: B16-F10
[26] = 72 h, 3 days, read-out: Air 3d pcDNA prol. IC50
[27] = 72 h, 3 days, read-out: Air 3d H69 prol. IC50
[28] = Homo sapiens, MES-SA, 72 h, 3 days, read-out: Air 3d MESSA prol. IC50
[29] = 72 h, 3 days, read-out: Air 3d H69ar (MRP1) prol. IC50

CCc1c2c(nc3ccccc13)-c1c(N)c3c(c(=O)n1C2)COC(=O)[C@]3(O)CC [TH1338]
IC50 [1]: 18 nM | IC50 [2]: 1200 nM | IC50 [3]: > 10000 nM | IC50 [4]: 7.2 nM | T/C [5]: 221 | IC50 (pcDNA; [26]): 4.3 nM | IC50 [6, 27]: 110 nM | IC50 ([7]; MDR1, 72 h, 3 days, read-out: Air 3d DX5 prol. IC50): 12 nM | IC50 [8]: 302 nM | IC50 [9, 28]: 4.3 nM | IC50 [10]: 620 nM | IC90 [11]: 4500 nM | IC50 [12]: 100 nM | IC90 [13]: 650 nM | TGI (%) (human colon cancer HT-29; 4 weeks, 40 mg/Kg): 100.7% | Max. BWL (%) (human colon cancer HT-29; 40 mg/kg): 2.9% | TGI (%) ([14]; H460, PO, QD × 5/wk, 2 weeks, 40 mg/Kg): 84.3% | Max. BWL (%) ([14]; mouse, in vivo, po, 40 mg/kg): 1.5% | TGI (%) ([15]; PC3, PO, QD × 5/wk, 2 weeks, 40 mg/Kg): 107% | Max. BWL (%) ([15]; mouse, in vivo, po, 40 mg/kg): 7% | IC50 [16]: 7 nM | half-life [17]: 4.17 h | AUC [17]: 1070 ng·h/mL | Cmax [17]: 250 ng/mL | IC50 [18]: 20 nM | IC50 [19]: 130 nM | IC50 [20, 29]: 240 nM | IC50 ([21]; 72 h, read-out: Air 3d BCRP prol. IC50 nM, air, 3 days): 4.9 nM | 3d BCRP/pcDNA ([21]; ratio of IC50s, BCRP over expressing versus parent line, 3 days): 1.1395 | Kp [22]: 0.7 | IC50 [23]: 120 nM | bioavailability (Oral bioavailability): 88.9% | IC50 [24]: 24 nM

CC[C@@]1(O)C(=O)OCc2c1c([N+](=O)[O-])c1n(c2=O)Cc2c-1nc1ccccc1c2/C=N/OC(C)(C)C [TH1431]
IC50 [4]: 800 nM | IC50 (pcDNA; [26]): 461 nM | IC50 (pcDNA; 120 h, 5 days, read-out: Air 5d pcDNA prol. IC50): 67 nM | IC50 (pcDNA; 3 days, read-out: Air 3d pcDNA prol. IC50): 900 nM | IC50 [6, 27]: 3790 nM | IC50 ([6]; 120 h, 5 days, read-out: Air 5d H69 prol. IC50): 354 nM | IC50 ([7]; MDR1, 120 h, 5 days, read-out: Air 5d DX5 prol. IC50): 515 nM | IC50 [8]: 288 nM | IC50 [9, 28]: 2690 nM | IC50 ([9]; Homo sapiens, MES-SA, 120 h, 5 days, read-out: Air 5d MESSA prol. IC50): 255 nM | IC50 ([9]; 3 days, read-out: Air 3d MESSA prol. IC50): 3300 nM | TGI (%) (human colon cancer HT-29; 2 weeks, 25 mg/Kg): 34.6% | Max. BWL (%) (human colon cancer HT-29; 25 mg/kg): 1.6% | TH1499 produced under air (H46O cells; air, undetectable levels): less than 5 nanomolar | 14 amino TH1499 produced under nitrogen (H46O cells; nitrogen): 180 nM | AUC [17]: 352 ng·h/mL | Cmax [17]: 348 ng/mL | IC50 [20, 29]: > 10000 nM | IC50 ([20]; 120 h, 5 days, read-out: Air 5d H69ar (MRP1) prol. IC50): 838 nM | IC50 ([21]; 120 h, read-out: Air 5d BCRP prol. IC50 nM, air, 5 days): 78 nM | 5d BCRP/pcDNA ([21]; ratio of IC50s, BCRP over expressing versus parent line, 5 days): 1.1642 | IC50 [25]: 720 nM | Kp [22]: 0.12 | IC50 [24]: 29 nM
